What was measured:
Assay type in all cases: biochemical
[1] = biological target: T1, hS1P1 (Homo sapiens, UniProt P21453); assay: [γ-35S]GTP binding, HEK293T cell membranes with S1P1 receptor
T1 construct: expressed in transfected cells; host or cells: HEK293T cells, transient transfection
Protocol: (§1) Human or mouse S1P5 DNA was mixed with an equal amount of DNA encoding a rat Gi2R protein as well as DNAs encoding cow β1 and γ2 proteins and used to transfect monolayers of HEK293T cells using the calcium phosphate precipitate method. After 60 h, cells were harvested, and microsomes were prepared, aliquoted, and stored at −70° C. until use.
(§2) After incubating for 30 min at 30° C., bound radionuclide was separated from free by filtration through Whatman GF/C paper using a Brandel Cell Harvester (Gaithersburg, Md.).
(§3) Assay of cAMP accumulation was performed as described previously (See Im et al., J. Biol. Chem. 275, 14281-14286 (2000), the disclosure of which is incorporated herein). Assays were conducted on populations of 5×10^5 cells stimulated with 1 uM forskolin in the presence of the phosphodiesterase inhibitor […] (IBMX, 1 mM) for 15 min. cAMP was measured by automated radioimmunoassay. The GTPγS studies were performed using zebrafish S1P1 overexpressed rat RH-7777 and human hS1P1, hS1P2, hS1P3 and hS1P5 overexpressed human HEK293 cells.
(§4) An additional series of compounds was tested using the GTPCS binding assay described in Example 2 and in Im et al., J. Biol. Chem. 275, 14281-14286 (2000), the disclosure of which is incorporated herein).

[2] = biological target: T2, hS1P3 (Homo sapiens, UniProt Q99500); assay: [γ-35S]GTP binding, HEK293T cell membranes with S1P3 receptor
T2 construct: expressed in transfected cells; host or cells: HEK293T cells, transient transfection
Protocol: as §1, §2, §3, §4

[3] = system: Recombinant S1P Receptors; assay: [γ-35S]GTP binding at recombinant S1P receptors (statements covering all receptors tested); conditions: at each receptor
Protocol: The same results were obtained regardless of whether the recombinant receptor used exogenous G proteins (HEK293T cells) or endogenous G proteins (RH7777 cells). […] The Sf9 cell and HEK293T cell membranes gave similar results. Furthermore, the activities measured in the broken cell assay predicted the responses seen in whole cell assays.
as §2, §3

T2 sequence (Q99500 whole entry): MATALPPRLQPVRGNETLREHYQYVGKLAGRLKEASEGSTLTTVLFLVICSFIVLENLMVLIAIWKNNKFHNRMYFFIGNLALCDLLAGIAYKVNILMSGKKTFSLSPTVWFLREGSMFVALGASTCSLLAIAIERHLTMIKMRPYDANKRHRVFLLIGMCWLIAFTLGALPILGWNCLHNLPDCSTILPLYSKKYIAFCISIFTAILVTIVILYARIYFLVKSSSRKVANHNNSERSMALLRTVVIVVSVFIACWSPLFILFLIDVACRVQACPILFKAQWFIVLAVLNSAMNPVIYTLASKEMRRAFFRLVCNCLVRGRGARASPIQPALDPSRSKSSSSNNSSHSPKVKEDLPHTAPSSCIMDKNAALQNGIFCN
T1 sequence (P21453 whole entry): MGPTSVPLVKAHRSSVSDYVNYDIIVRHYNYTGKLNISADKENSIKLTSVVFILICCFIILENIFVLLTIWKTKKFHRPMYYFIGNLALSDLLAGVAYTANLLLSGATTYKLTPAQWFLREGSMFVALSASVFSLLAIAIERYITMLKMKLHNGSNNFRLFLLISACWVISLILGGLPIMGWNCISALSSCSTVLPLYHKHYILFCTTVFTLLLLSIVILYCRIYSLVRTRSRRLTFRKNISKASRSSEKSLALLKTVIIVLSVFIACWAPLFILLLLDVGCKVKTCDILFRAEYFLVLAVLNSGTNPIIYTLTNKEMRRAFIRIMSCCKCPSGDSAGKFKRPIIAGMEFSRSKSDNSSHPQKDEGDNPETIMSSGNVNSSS

CCCCCCCCCCCCCCOC(=O)[C@@H](N)COP(=O)(O)O [VPC22053]
less potent than enantiomer VPC22135 at S1P1 receptor [1]: more than 1 log order | less potent than enantiomer VPC22135 at S1P3 receptor [2]: more than 1 log order

CCCCCCCCCCCCCCNC(=O)[C@H](N)COP(=O)(O)O [VPC22135]
potency compared with S1P at human S1P1 receptor ([1]; result in words): approached the potency of S1P | potency compared with S1P at human S1P3 receptor ([2]; result in words): approached the potency of S1P

CCCCCCc1cccc(NC(=O)[C@H](N)COP(=O)(O)O)c1 [VPC23031]
type of activity at the S1P3 receptor (inverse agonism / agonism) ([2]; result in words): inverse agonists

CCCCCCCCc1ccccc1NC(=O)[C@H](N)COP(=O)(O)O [VPC23089]
type of activity at the S1P3 receptor (inverse agonism / agonism) ([2]; result in words): inverse agonists

CCCCCCCCCCCCC/C=C/[C@@H](O)[C@@H](N)COP(=O)(O)O [Compound S1P, Sphingosine-1-phosphate]
increase of GTPγS binding [3]: 2-5 fold

CCCCCCCCc1cccc(NC(=O)[C@H](N)COP(=O)(O)O)c1 [VPC23019]
antagonism at S1P1 ([1]; result in words, competition with S1P): antagonism | type of activity at the S1P3 receptor (inverse agonism / agonism) ([2]; result in words): inverse agonists

CCCCCCCCCc1cccc(NC(=O)[C@H](N)COP(=O)(O)O)c1 [VPC23079]
type of activity at the S1P3 receptor (inverse agonism / agonism) ([2]; result in words): agonism

CCCCCCCCCCc1cccc(NC(=O)[C@H](N)COP(=O)(O)O)c1 [VPC23069]
type of activity at the S1P3 receptor (inverse agonism / agonism) ([2]; result in words): agonism

From patent publication US7560477B2, “Compounds active in sphingosine 1-phosphate signaling” (University of Virginia Patent Foundation, priority 2002, dated 2009)
